The record followed here is patent publication US20240239854A1, “ANTIMICROBIAL PEPTIDES AND MODIFICATIONS THEREOF” (Donald Danforth Plant Science Center, priority 2022, published 2024).

Values after ≈ are worked out from the molar mass of the structure shown.

Format in all cases: cell-based
The test system of test [1] is Zymoseptoria tritici IPO323.
Test [2] relates to Fusarium graminearum PH-1. The following applies: for MIC, in-vitro antifungal activity against F. graminearum: F. graminearum PH-1, 48 hours; for F. graminearum PH-1 MIC Day1: MIC Day 1, 96-well plate, resazurin cell viability. For orientation: The colour change of resazurin is a common sign of viable cells or microbes.
A further test has as its system Botrytis cinerea T4. The following applies: for MIC, in-vitro antifungal activity against B. cinerea: 48 hours.

Take `C[C@@H]1[C@H](O)[C@@H](C)/C=C/C=C/C=C/C=C/C=C/C=C/C=C/[C@H](O[C@@H]2O[C@H](C)[C@@H](O)[C@H](N)[C@@H]2O)C[C@@H]2O[C@](O)(C[C@@H](O)C[C@@H](O)[C@H](O)CC[C@@H](O)C[C@@H](O)CC(=O)O[C@H]1C)C[C@H](O)[C@H]2C(=O)O` [Amphotericin-B, reference compound]: in test [1], the “MIC against Z. tritici on day 1” value was 0.84 µM (≈ 0.776 µg/mL), the “MIC against Z. tritici on day 7” value was determined as 5.44 µM (≈ 5.03 µg/mL), the “MIC against Z. tritici on day 14” value is 8.92 µM (≈ 8.24 µg/mL) and the “Z. tritici IPO323 MIC Day 1” value was 0.84 µM. Besides, in test [1], the “Z. tritici IPO323 MIC Day 7” value worked out at 5.44 µM and the “Z. tritici IPO323 MIC Day 14” value amounted to 8.92 µM. Also, in test [2], the “MIC, in-vitro antifungal activity against F. graminearum” value (“MIC … against F. graminearum” below) turned out to be 6 µM (≈ 5.54 µg/mL) and the “F. graminearum PH-1 MIC Day1” value was 6 µM. For the same molecule, in the test with Botrytis cinerea T4, the “B. cinerea T4 MIC Day1” value was 3 µM and the “MIC, in-vitro antifungal activity against B. cinerea” value amounted to 3 µM (≈ 2.77 µg/mL).

With “PD81.1.1: Pinus sylvestris wild-type defensin SEQ ID NO: 534 with N-terminal alanine, expressed in Pichia pastoris (RMCKTPSGKFKGYCVSSTNCKNVCRTEGFPTGSCDFHVASRKCYCYKPC; N-terminal alanine added; listed as Pinus sylvestris)”, in test [1], the “Z. tritici IPO323 MIC Day 1” value was 0.5 µM, the “Z. tritici IPO323 MIC Day 7” value turned out to be 0.75 µM and the “Z. tritici IPO323 MIC Day 14” value came to 3 µM. In addition, the “F. graminearum PH-1 MIC Day1” value in test [2] is 1.5 µM. Further, in the test with Botrytis cinerea T4, the “B. cinerea T4 MIC Day1” value is 1 µM and the “MIC, in-vitro antifungal activity against B. cinerea” value was determined as 1 µM.

In the case of “PD82.1.1: Pinus sylvestris wild-type defensin SEQ ID NO: 538 with N-terminal alanine, expressed in Pichia pastoris (RTCLSKSHRFHGYCVRSSSCKEICQTERFLSGECRHTHLGNRRCFCEKPC; N-terminal alanine added; listed as Pinus sylvestris)”, in test [1], the “Z. tritici IPO323 MIC Day 1” value amounted to 0.625 µM, the “Z. tritici IPO323 MIC Day 7” value amounted to 2 µM and the “Z. tritici IPO323 MIC Day 14” value stood at 3.5 µM. Further, in test [2], the “F. graminearum PH-1 MIC Day1” value was determined as 1.5 µM. The “B. cinerea T4 MIC Day1” value in the test on Botrytis cinerea T4 is 1.125 µM.

“PD83.1.1: Eucalyptus grandis wild-type defensin SEQ ID NO: 542 with N-terminal alanine, expressed in Pichia pastoris (RMCESQSHKFHGLCMSDRTCVVVCKEEDFDDGKCRGFRHRCFCRKPC; N-terminal alanine added; listed as Eucalyptus grandis)”: the “F. graminearum PH-1 MIC Day1” value in test [2] is more than 12 µM. Also, the “B. cinerea T4 MIC Day1” value in the test on Botrytis cinerea T4 was more than 12 µM.

“PD84.1.1: Striga asiatica wild-type defensin SEQ ID NO: 546 with N-terminal alanine, expressed in Pichia pastoris (KICEYKSERFWGVCLSDIKCADVCKDESFESGDCQGLRRRCMCYNHC; N-terminal alanine added; listed as Striga asiatica)”: in test [1], the “Z. tritici IPO323 MIC Day 1” value is more than 12 µM, the “Z. tritici IPO323 MIC Day 7” value was more than 12 µM and the “Z. tritici IPO323 MIC Day 14” value is more than 12 µM. In addition, in test [2], the “F. graminearum PH-1 MIC Day1” value was more than 12 µM. For the same molecule, the “B. cinerea T4 MIC Day1” value in the test with Botrytis cinerea T4 is more than 12 µM.

For the molecule “PD85.1.1: Panax ginseng wild-type defensin SEQ ID NO: 551 with N-terminal alanine, expressed in Pichia pastoris (KLCEKASLTWSGKCGNTQNCDKQCQNWESAKHGACHKRPTWKCFCYSDC; N-terminal alanine added; Panax ginseng)”, in test [1], the “Z. tritici IPO323 MIC Day 1” value turned out to be 0.625 µM, the “Z. tritici IPO323 MIC Day 7” value was 1.75 µM and the “Z. tritici IPO323 MIC Day 14” value is 10 µM. Also, in test [2], the “F. graminearum PH-1 MIC Day1” value was more than 12 µM. Further, the “B. cinerea T4 MIC Day1” value in the test with Botrytis cinerea T4 is more than 12 µM.

With “PD86.1.1: Erythranthe guttata wild-type defensin SEQ ID NO: 555 with N-terminal alanine, expressed in Pichia pastoris (SLCETPSRYFNGICFSRRNCGAICEKEGFSSGRCKAFKCVCGKDC; N-terminal alanine added; listed as Erythranthe guttata)”, in test [1], the “Z. tritici IPO323 MIC Day 1” value turned out to be 7 µM, the “Z. tritici IPO323 MIC Day 7” value was found to be 12 µM and the “Z. tritici IPO323 MIC Day 14” value is more than 12 µM. Besides, the “F. graminearum PH-1 MIC Day1” value in test [2] is 6 µM. In addition, the “B. cinerea T4 MIC Day1” value in the test with Botrytis cinerea T4 came out at 12 µM.

With “PD87.1.1: Raphanus sativus wild-type defensin SEQ ID NO: 560 with N-terminal alanine, expressed in Pichia pastoris (KLCQRPSGTWSGVCGNNNACKNQCIRLEKARHGSCNYVFPAHKCICYFPC; N-terminal alanine; listed as Raphanus sativus)”, in test [1], the “Z. tritici IPO323 MIC Day 1” value worked out at 0.375 µM, the “Z. tritici IPO323 MIC Day 7” value was found to be 1.5 µM and the “Z. tritici IPO323 MIC Day 14” value was 2.5 µM. In test [2], the “MIC … against F. graminearum” value was 0.75 µM and the “F. graminearum PH-1 MIC Day1” value amounted to 0.75 µM. In addition, the “B. cinerea T4 MIC Day1” value in the test on Botrytis cinerea T4 turned out to be 0.375 µM.

Take “PD88.1.1: Fraxinus excelsior wild-type defensin SEQ ID NO: 565 with N-terminal alanine, expressed in Pichia pastoris (KHCAKLSKGWHGFCAPHKCSRYCIHHEGAYDGACLKHHHSKHIGCYCYYRHC; N-terminal alanine; Fraxinus excelsior)”: in test [1], the “Z. tritici IPO323 MIC Day 1” value was found to be 1.5 µM, the “Z. tritici IPO323 MIC Day 7” value stood at 3 µM and the “Z. tritici IPO323 MIC Day 14” value came out at 4 µM. The “F. graminearum PH-1 MIC Day1” value in test [2] was more than 12 µM. Further, the “B. cinerea T4 MIC Day1” value in the test with Botrytis cinerea T4 was 0.75 µM.

Regarding “PD89.1.2: Crambe maritima wild-type defensin SEQ ID NO: 569 with N-terminal alanine, expressed in Pichia pastoris (KLCRKPSGTWSGLCANSDSCRKQCINLEKAKDGSCKYKFPAHKCFCYY; N-terminal alanine; listed as Crambe maritima)”, in test [1], the “Z. tritici IPO323 MIC Day 1” value worked out at 1.5 µM, the “Z. tritici IPO323 MIC Day 7” value stood at 6 µM and the “Z. tritici IPO323 MIC Day 14” value was found to be 12 µM. The “F. graminearum PH-1 MIC Day1” value in test [2] was 12 µM. The “B. cinerea T4 MIC Day1” value in the test on Botrytis cinerea T4 was determined as 2.5 µM.

On to “PD92.1.1: Trifolium pratense wild-type defensin SEQ ID NO: 583 with N-terminal alanine, expressed in Pichia pastoris (RKCESKRRWIYGNCLSDEKCASDCLVKGFLFGKCRGYDNRCYCKKPRC; N-terminal alanine; Trifolium pratense)”, for which, in test [1], the “Z. tritici IPO323 MIC Day 1” value came to 0.75 µM, the “Z. tritici IPO323 MIC Day 7” value worked out at 1.75 µM and the “Z. tritici IPO323 MIC Day 14” value turned out to be 2.5 µM. Besides, the “F. graminearum PH-1 MIC Day1” value in test [2] is 3 µM. In addition, in the test on Botrytis cinerea T4, the “B. cinerea T4 MIC Day1” value amounted to 3 µM.

For the molecule “PD93.1.1: Fragaria vesca wild-type defensin SEQ ID NO: 588 with N-terminal alanine, expressed in Pichia pastoris (KICEVPSKTFKGLCVKDRNCVVRCHSEGYGNGKCSHVRRQCMCLKICD; N-terminal alanine; listed as Fragaria vesca)”, in test [1], the “Z. tritici IPO323 MIC Day 1” value is 2 µM, the “Z. tritici IPO323 MIC Day 7” value was determined as 5 µM and the “Z. tritici IPO323 MIC Day 14” value turned out to be 8 µM. Further, the “F. graminearum PH-1 MIC Day1” value in test [2] is more than 12 µM. The “B. cinerea T4 MIC Day1” value in the test on Botrytis cinerea T4 came to 6 µM.

Turning to “PD94.1.1: Solanum lycopersicum wild-type defensin SEQ ID NO: 593 with N-terminal alanine, expressed in Pichia pastoris (KLCQYHSETFHGVCVTGNNCNRHCQRENFEGGRCHGIRHYRCVCYRTC; N-terminal alanine; listed as Solanum lycopersicum)”, in test [1], the “Z. tritici IPO323 MIC Day 1” value is more than 12 µM, the “Z. tritici IPO323 MIC Day 7” value was more than 12 µM and the “Z. tritici IPO323 MIC Day 14” value is more than 12 µM. Further, in test [2], the “F. graminearum PH-1 MIC Day1” value was more than 12 µM. Further, the “B. cinerea T4 MIC Day1” value in the test with Botrytis cinerea T4 is more than 12 µM.

Turning to “PD95.1.1: Mimulus guttatus wild-type defensin SEQ ID NO: 598 with N-terminal alanine, expressed in Pichia pastoris (RHCESPSHRFKGICVRKSNCAAICQTEGFSSGKCRGFRSRCVCIKHC; N-terminal alanine; listed as Mimulus guttatus)”, in test [2], the “MIC … against F. graminearum” value turned out to be 0.75 µM and the “F. graminearum PH-1 MIC Day1” value is 0.75 µM. Further, the “B. cinerea T4 MIC Day1” value in the test with Botrytis cinerea T4 was 0.75 µM.

For the molecule “PD99.1.1: Theobroma cacao wild-type defensin SEQ ID NO: 616 with N-terminal alanine, expressed in Pichia pastoris (KLCQKRSKTWTGPCIKTKNCDHQCRKWEKAQHGACHWQWPGFACFCYVNC; N-terminal alanine; Theobroma cacao)”, in test [2], the “MIC … against F. graminearum” value came out at 0.75 µM and the “F. graminearum PH-1 MIC Day1” value was found to be 0.75 µM. Further, the “B. cinerea T4 MIC Day1” value in the test on Botrytis cinerea T4 came out at 0.75 µM.

In the case of “PD114.1.1: Lupinus albus wild-type defensin SEQ ID NO: 679 with N-terminal alanine, expressed in Pichia pastoris (RTCKSKSQRYKGSCYSDNNCAIICEGEGFTGGKCHGFFCKCWCKRPCL; N-terminal alanine added; listed as Lupinus albus)”, the “F. graminearum PH-1 MIC Day1” value in test [2] is more than 12 µM. The “B. cinerea T4 MIC Day1” value in the test on Botrytis cinerea T4 was more than 12 µM.

Turning to “PD120.1.1: Setaria italica wild-type defensin SEQ ID NO: 706 with N-terminal alanine, expressed in Pichia pastoris (DRCETHSRTYKGRCNNHNCWSICITEGNTGGFCKGTLLLKCMCTSEC; N-terminal alanine added; listed as Setaria italica)”, in test [2], the “F. graminearum PH-1 MIC Day1” value amounted to 12 µM. Besides, in the test on Botrytis cinerea T4, the “B. cinerea T4 MIC Day1” value is more than 12 µM.
